From patent US7741344B2, “Process for preparing purified S-BEL and R-BEL and compositions thereof” (Washington University in St. Louis, priority 2002, dated 2010)

Experiments:
[1] = target: T1, recombinant human iPLA2γ (Homo sapiens, UniProt Q9NP80); assay: Assay of iPLA2γ inhibition by BEL (Sf9 cell membranes, radiolabeled phospholipid substrate); assay type: biochemical
T1 construct: Recombinant full-length iPLA2γ was expressed in Sf9 cells; made in house; host or cells: Sf9 cells (washed membrane fraction, not purified)
T1 sequence (Q9NP80 1-782): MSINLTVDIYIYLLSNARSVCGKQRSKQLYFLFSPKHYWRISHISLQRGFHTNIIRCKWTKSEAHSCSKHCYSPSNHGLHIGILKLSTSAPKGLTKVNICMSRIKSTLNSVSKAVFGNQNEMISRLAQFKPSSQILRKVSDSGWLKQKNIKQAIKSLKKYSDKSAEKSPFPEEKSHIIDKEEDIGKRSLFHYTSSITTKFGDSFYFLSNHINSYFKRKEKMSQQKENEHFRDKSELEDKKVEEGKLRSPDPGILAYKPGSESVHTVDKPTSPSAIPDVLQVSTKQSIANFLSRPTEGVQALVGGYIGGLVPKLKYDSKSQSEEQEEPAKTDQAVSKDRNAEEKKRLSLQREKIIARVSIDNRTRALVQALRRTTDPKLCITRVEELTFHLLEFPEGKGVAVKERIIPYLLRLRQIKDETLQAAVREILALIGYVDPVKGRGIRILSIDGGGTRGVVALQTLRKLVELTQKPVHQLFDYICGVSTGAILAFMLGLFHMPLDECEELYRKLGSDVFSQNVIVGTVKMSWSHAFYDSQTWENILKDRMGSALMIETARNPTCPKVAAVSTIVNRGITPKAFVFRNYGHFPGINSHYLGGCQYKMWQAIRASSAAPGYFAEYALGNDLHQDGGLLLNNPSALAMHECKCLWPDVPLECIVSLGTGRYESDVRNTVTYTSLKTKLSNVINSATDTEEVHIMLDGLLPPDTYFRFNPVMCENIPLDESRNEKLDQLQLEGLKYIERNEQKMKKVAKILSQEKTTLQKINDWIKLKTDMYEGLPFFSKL
Experimental: Recombinant iPLA2 Enzymes—Recombinant iPLA2β was expressed and purified from Sf9 cells as previously described (35). Recombinant full-length iPLA2γ was expressed in Sf9 cells and the membrane fraction was washed and isolated as previously described (24).
Assay of iPLA2β and iPLA2γ Inhibition by BEL—Purified recombinant iPLA2β or Sf9 cell membranes containing recombinant iPLA2γ were incubated with (R) BEL, (S) BEL, racemic BEL, or ethanol vehicle for 3 mm at 22° C. in the presence of 100 mM Tris-HCl (pH 7.0) and 4 mM EGTA (for iPLA2β) or 100 mM Tris-acetate (pH 8.0) and 4 mM EGTA (for iPLA2γ). The concentration of BEL used for each test ranged from 0 to 16 μM. L-α-1-palmitoyl-2-[1^14C]-arachidonyl-phosphatidylcholine (5 μM final concentration) or L-α-1-palmitoyl-2-[1-^14C]-oleoyl-phosphatidylcholine (5 μM final concentration) in ethanol was then added to each sample and incubated at 37° C. for 2 min. Reactions were terminated by extraction of radiolabeled products into butanol, and reactants and products were separated by thin layer chromatography using Whatman LK6D 60 Å Silica Gel plates with petroleum ether/ethyl ether/acetic acid (70:30:1) as the mobile phase. Regions corresponding to the migration of a fatty acid standard visualized by iodine staining were scraped into vials and radioactivity was quantified by scintillation spectrometry.
Panel A—Purified recombinant iPLA2β (1 μg/ml) in 100 mM Tris-HCl, pH 7.3 containing 1 mM EGTA was preincubated at 22° C. for 3 mm in the presence of the indicated concentrations of (R)-, (S)-, or rac-BEL or ethanol vehicle alone (1% final concentration). Radiolabeled substrate (L-α-1-palmitoyl-2-[1-^14C]-arachidonyl-phosphatidylcholine, 5 μM final concentration) was then added to each reaction and incubated at 37° C. for 2 min. Reactions were terminated by extraction of remaining substrate and products into butanol, separation by TLC, and quantification of released radiolabeled fatty acid by scintillation spectrometry as described in Experimental Procedures. Results are representative of four separate tests. Panel B—Washed Sf9 cell membranes containing recombinant human iPLA2γ were preincubated for 3 min with the indicated concentrations of (R)-, (S)-, or racemic BEL or ethanol vehicle alone (1% final concentration) in 100 mM Tris-acetate, pH 8.0 containing 1 mM EGTA at 22° C. Radiolabeled substrate (L-α-1-palmitoyl-2-[1-^14C]-oleoyl-phosphatidylcholine, 5 μM final concentration) was then added to each reaction and incubated at 37° C. for 2 min. Reactions were terminated by extraction of remaining substrate and products into butanol, separation by TLC, and quantification of released radiolabeled fatty acid by scintillation spectrometry as described in “Experimental Procedures”. Results are representative of four separate tests.

[2] = system: PAP-1 in human amnionic WISH cells; settings: ≈25 μM; (34); cited from earlier work

| SMILES | inhibitory potency on iPLA2γ relative to the enantiomers ([1]; FIG. 4B) | IC50 ([1]; read-out: IC50 for iPLA2γ (range stated jointly for iPLA2β and iPLA2γ)) [nM] | inhibition of PAP-1 in human amnionic WISH cells [2] | selectivity for inhibition of iPLA2γ [1] [fold] | inhibition of iPLA2γ, fold more potent than (S)-BEL ([1]; 3 min preincubation, FIG. 4B) | selectivity for iPLA2γ than iPLA2β ([1]; in words) |
| --- | --- | --- | --- | --- | --- | --- |
| O=C1OC(=CBr)CCC1c1cccc2ccccc12 (racemic) [rac-BEL, Racemic (E)-6-(bromomethylene)-3-(1-naphthalenyl)-2H-tetrahydropyran-2-one] | intermediate of that of (R)-BEL and (S)-BEL | 500 to 3000 | effectively inhibit |  |  |  |
| O=C1O/C(=C/Br)CC[C@@H]1c1cccc2ccccc12 [(R)-BEL, (R)(E)-6-(bromomethylene)-3-(1-naphthalenyl)-2H-tetrahydropyran-2-one] |  |  |  | 10 | approximately 10 fold | approximately an order of magnitude more selective |
